Data published in paper PMC11048566, “The Development of a Regulator of Human Serine Racemase for N-Methyl-D-aspartate Function” (Biomedicines, 2024).

Key:
hSR = target: T1, hSR (Homo sapiens, UniProt Q9GZT4); design: method as in PMID 29899358; details: 2 mM ATP, cited from earlier work
T1 construct: 6xHis (C); made in house; host or cells: E. coli BL21 (pET42b-hSR)
T1 sequence (Q9GZT4 1-340): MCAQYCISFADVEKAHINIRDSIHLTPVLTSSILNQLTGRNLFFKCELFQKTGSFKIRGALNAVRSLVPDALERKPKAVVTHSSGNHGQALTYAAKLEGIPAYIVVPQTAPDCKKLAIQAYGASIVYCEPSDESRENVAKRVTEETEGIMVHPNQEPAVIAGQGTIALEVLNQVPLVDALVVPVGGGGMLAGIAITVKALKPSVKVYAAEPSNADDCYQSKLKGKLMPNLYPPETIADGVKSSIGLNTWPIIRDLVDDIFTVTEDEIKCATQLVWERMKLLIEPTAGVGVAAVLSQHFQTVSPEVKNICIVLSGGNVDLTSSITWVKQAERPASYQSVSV

[1] = target: T2, human serine racemase (hSR) (Homo sapiens, UniProt Q9GZT4); experiment: Two-step enzymatic assay of hSR racemization (hSR, then DAAO/HRP/Amplex Red); assay type: biochemical; details: within the physiological range of ATP concentration
T2 construct: 6xHis (C); made in house; host or cells: E. coli BL21 (pET42b-hSR)
T2 sequence (Q9GZT4 1-340): T1 sequence (Q9GZT4 1-340)
Method: This assay was designed by the formation of D-serine by hSR and the oxidation of D-serine by D-amino acid oxidase (DAAO) and horseradish peroxidase (HRP) with the peroxidase substrate Amplex Red^TM (10-acetyl-3,7-dihydroxyphenoxazine) (Thermo Fisher Scientific, Lagoas Park, Porto Salvo, Portugal). The hSR activity assay reaction was carried out in 100 mM HEPES buffer, pH 8.0, containing 2.4 µg of hSR protein, 50 µM PLP, 1 mM MgCl2, 0.25 mM ATP, 400 mM L-serine, and 2 times serially diluted α12G (8 mM to 0.2 µM). Compound-free wells were used as blank controls in the assay. All reactions were performed in duplicates. The reaction mixtures were incubated at 37 °C for 4 h. The reaction was stopped by heating the reaction mixtures at 95 °C for 10 min and storage at 4 °C. A reaction mixture for the second-step enzymatic assay, DAAO assay, with a final volume of 100 µL was made with a 10 µL sample from hSR assay, 45 µM FAD, 10 units of HRP, 60 ng DAAO, 10 mM lead acetate, 10 mM Amplex Red^TM, and 100 mM Tris HCl (pH = 8.5). Lead acetate was used to conjugate α12G as the latter would inhibit the DAAO function in the fluorometric assay, leading to an […] of the effects of α12G on hSR. The fluorescence was detected by the TECAN Infinite 200 Microplate Reader (GMI, MN, USA). The racemization percentage was calculated as follows: racemization % = (Fsample, 20 min − Fsample, 0 min)/(Fblank, 20 min − Fblank, 0 min) × 100%. […] The two-step enzymatic assay described in Section 2.3 was designed by the formation of D-serine by hSR and the consequent oxidation of D-serine by DAAO. The inhibition of DAAO, which also degrades D-serine, by α12G will lead to overestimating the effects of racemization by hSR. […] Therefore, lead acetate was applied to conjugate α12G for the determination of racemization. […] On the contrary, when the concentration of α12G is higher than 2 mM, the racemization activity of hSR is inhibited.

SR [2] = experiment: D-serine and L-serine levels in cerebral cortex and plasma after IV DMM (LC-MS/MS); assay type: in vivo, C57BL/6J male mice; details: 400 mg/kg DMM IV, 30 min after administration, vs vehicle, n = 3
Method: For the determination of DAA concentration, C57BL/6J male mice received 50, 100, 200, and 400 mg/kg DMM (TGI, Tokyo, Japan) IV, and the mice were euthanized 30 min later. Cerebral cortex and plasma samples (n = 3 − 9) were collected and stored at −80 °C until the time of analysis. The brain tissues were weighed and homogenized on ice with 5-fold volumes of 1000 ng/mL tolbutamide (internal standard, IS, Sigma-Aldrich, St. Louis, MO, USA)) in methanol (Merck KGaA, Darmstadt, Germany). The plasma was combined with 4-fold volumes of 1250 ng/mL IS in methanol and vortexed for 2 min. The homogenates were centrifuged at 12,000× g […] for 10 min at 4 °C in an Eppendorf 5417R centrifuge (Eppendorf, Hamburg, Germany). The supernatant was passed through a 0.22 μm filter (Merck KGaA, Darmstadt, Germany) and analyzed by liquid chromatography–tandem mass spectrometry (LC-MS/MS) using the following method: An Agilent 1260 LC quaternary pump with an Agilent 1260 LC infinity autosampler and an Agilent 1100 column oven (Marshall Scientific, Hampton, NH, USA) were used to inject the samples onto an Astec Chirobiotic column (5 μm, 250 × 4.6 mm I.D., Sigma-Aldrich, St. Louis, MO, USA). The mobile phase was a 20/80 mixture of mobile phase A (0.1% formic acid (Sigma-Aldrich, St. Louis, MO, USA) in ddH2O) and mobile phase B (0.1% formic acid in acetonitrile), and the run was isocratic at a flow rate of 0.3 mL/min. Quantitation was achieved by MS/MS detection in positive ion multiple reaction monitoring (MRM) mode for analyte and IS using an AB SCIEX 3200 triple quadrupole ion trap mass spectrometer (AB Sciex, Framingham, MA, USA). The parameters for curtain gas, ion spray voltage, temperature, ion source gas 1, and ion source gas 2 were 10 psi, 5000 V, 550 °C, 35 psi, and 30 psi, respectively. AB SCIEX Analyst® (version 1.6.3, AB Sciex, Framingham, MA, USA) software was used for system control and data processing. To investigate the regulation of racemization by hSR, we applied DMM, the pro-drug of malonate, to C57BL/6J male mice. The mice were euthanized 30 min after the administration. The cerebral cortex and plasma were harvested and analyzed by LC-MS/MS to quantify D-serine and L-serine levels after the treatment with DMM (Figure 1). […] L-serine levels were also raised in the cerebral cortex 1.44 times (p < 0.001; n = 3; Student’s t-test) and in plasma 1.55 times (p < 0.05; n = 3; Student’s t-test).

[3] = target: D-amino acid oxidase (DAAO) (Homo sapiens, UniProt P14920); experiment: DAAO enzymatic assay; assay type: biochemical
Method: A reaction mixture for the DAAO assay, with a final volume of 100 µL was made with 1 µL 2 times serially diluted α12G (4 µM to 7.8 nM), 45 µM FAD, 10 units of HRP, 60 ng DAAO, 10 mM Amplex Red^TM, 5 mM D-serine, and 100 mM Tris HCl (pH = 8.5). All reactions were performed in duplicates. The fluorescence was detected by a fluorometric meter (TECAN Infinite 200). The racemization percentage was calculated as follows: activity % = (Fsample, 20 min − Fsample, 0 min)/(Fblank, 20 min − Fblank, 0 min) × 100%.

SR [4] = details: two-step enzymatic assay; read-out: IC50 of SR inhibition; cited from earlier work

In the case of `Nc1ncnc2c1ncn2[C@@H]1O[C@H](COP(=O)(O)OP(=O)(O)OP(=O)(O)O)[C@@H](O)[C@H]1O` [ATP], the “Increase in enzyme activation, L-serine dehydration (kcat/KM 8.1 to 253 s^−1 M^−1)” value (hSR; 200 mM L-serine, 37 °C) is given as 31 fold, the “Enhancement of D-serine dehydration (kcat/KM 0.6 to 2.4 s^−1 M^−1)” value (hSR) is given as 4 fold and the “Enhancement of L-serine racemization (kcat/KM 9.2 to 17.5 s^−1 M^−1)” value (hSR) is given as 1.9 fold. For the same compound, the “ATP concentration that promotes the most racemization by hSR” value [1] was 0.25 mM.
With `COC(=O)CC(=O)OC` [DMM, dimethyl malonate] the “D-serine level in plasma, raised” value (SR [2]) was 1.75 times, the “D-serine level in the cerebral cortex, raised” value (SR [2]) was 1.43 times and the “L-serine level in plasma, raised” value (SR [2]) was 1.55 times. The “L-serine level in the cerebral cortex, raised” value (SR [2]) was 1.44 times.
For `Nc1ccccc1N1CCOCC1` [x-0458, 2-morpholinoaniline, reference compound], the “Effect on DAAO” value [3] is listed as “has an inhibitory effect on DAAO” and the IC50 (SR [4]) is listed as 10.6 µM.
